# From patent US6277829A, “Process for preparing of aqueous formulation for opthalmic use” (S.I.F.I. Societa Industria Farmaceutica Italiana S.p.A., priority 1999, dated 2001)
# Key:
# in vivo = experiment: in vivo; parameters: species or system white New Zealand rabbits; conditions: rabbit, topical or ocular, Ct (tissue concentration of azithromycin), Average
# Description: Twelve male white New Zealand rabbits (weighing 1.8-2.3 kg) have been randomly divided in three groups (consisting of four animals each).
# I Group: three instillations (animals have been sacrificed 6 hours after the first dosing)
# II Group: six instillations (animals have been sacrificed 12 hours after the first dosing)
# III Group: six instillations (animals have been sacrificed 24 hours after the first dosing)
# Aqueous humor has been drawn away with a 23-gauge needle attached to an insulin syringe of 1 ml. After enucleation the cornea has been excised at the limbus and removed from the eyeball. All specimens have been carefully weighed, then immediately frozen at -20° C. […] Each specimen has been ground and homogenized with 1 ml of PBS (2 min., 24,000 rpm). The suspension has been mixed with an equal volume of acetonitrile and stored at 0° C. After 1 hour, the samples have been centrifuged at 0° C. […] Aqueous humor has been directly mixed with acetonitrile before being centrifuged.
# [1] = titration of azithromycin and clarithromycin, dispersed in water, with citric acid (FIG. 1, FIG. 2); format: physicochemical
# Staphylococcus aureus = experiment: MIC90 for Staphylococcus aureus; format: cell-based
# [2] = solubility in aqueous solution; format: physicochemical; conditions: aqueous citric acid/phosphate; process of the invention (citric acid/phosphate); read-out: solubility of azithromycin in aqueous solution
# Text: Formulations containing azithromycin at concentration ranging from 0.01 to 10% w/v, more particularly between 0.3 and 5% w/v, are the most preferred.
# [3] = background statement; cited from earlier work
# H. influenzae ATCC 49247 = experiment: In vitro antibacterial activity, MBC; format: cell-based; conditions: Haemophilus influenzae
# Description: (§1) In vitro bacteriostatic/bactericidal activity of azithromycin in different ophthalmic solutions has been evaluated as a function of ([H+]). Assessment of the activity it has been carried out by standardized method recommended by the National Committee for Clinical Laboratory Standards (NCCLS). […] Accordingly, three aliquots of Mueller-Hinton broth have been adjusted to the same pH of the azithromycin solutions (three) to be tested. […] Incubation for Staphylococcus spp. and Pseudomonas spp. needs aerobic conditions whereas Streptococcus spp. and Haernophilus spp. require partial anaerobic conditions during the period of incubation (5%, CO2).
# [4] = test system: S. epidermidis ATCC 12228; experiment: In vitro antibacterial activity, MBC; format: cell-based; conditions: Staphylococcus epidermidis
# Description: as §1
# S. aureus ATCC 25923 = experiment: In vitro antibacterial activity, MBC; format: cell-based; conditions: Staphylococcus aureus
# Description: as §1
# S. aureus ATCC 29213 = experiment: In vitro antibacterial activity, MBC; format: cell-based; conditions: Staphylococcus aureus
# Description: as §1
# St. Pyogenes ATCC 21547 = experiment: In vitro antibacterial activity, MBC; format: cell-based; conditions: Streptococcus pyogenes
# Description: as §1
# S. aureus ATCC 6538P = experiment: In vitro antibacterial activity, MBC; format: cell-based; conditions: Staphylococcus aureus, ATCC6538P
# Description: as §1
# Ps. aeruginosa ATCC 9027 = experiment: In vitro antibacterial activity, MBC; format: cell-based; conditions: Pseudomonas aeruginosa
# Description: as §1
# H. influenzae ATCC 9006 = experiment: In vitro antibacterial activity, MBC; format: cell-based; conditions: Haemophilus influenzae
# Description: as §1
# [5] = test system: Ps. aeruginosa ATCC 27853; experiment: In vitro antibacterial activity, MBC; format: cell-based; conditions: Pseudomonas aeruginosa
# Description: as §1
# [6] = test system: St. Pneumoniae ATCC 49619; experiment: In vitro antibacterial activity, MBC; format: cell-based; conditions: Streptococcus pneumoniae
# Description: as §1
# [7] = cited from earlier work
# gram-positive organisms = conditions: compared with other macrolides; cited from earlier work
smiles,measurement,setting,value
CC[C@H]1OC(=O)[C@H](C)[C@@H](O[C@H]2C[C@@](C)(OC)[C@@H](O)[C@H](C)O2)[C@H](C)[C@@H](O[C@@H]2O[C@H](C)C[C@H](N(C)C)[C@H]2O)[C@](C)(O)C[C@@H](C)CN(C)[C@H](C)[C@@H](O)[C@]1(C)O [azithromycin],concentration at 6 h,in vivo,250000 ng/g
same,concentration at 24 h,in vivo,420000 ng/g
same,solubilization by citric acid,"[1]; citric acid, physiological range of pH",elevated concentration
same,equivalent point,[1]; titration with citric acid,~7.0 pH
same,MIC90,Staphylococcus aureus,2.25 µg/mL
same,solubility,[2],> 100 mg/mL
same,water solubility,[3],poor water solubility
same,MBC,"H. influenzae ATCC 49247; ATCC49247, pH 6.5",7 µg/mL
same,MBC,"H. influenzae ATCC 49247; ATCC49247, pH 7.2",3.5 µg/mL
same,MBC,"H. influenzae ATCC 49247; ATCC49247, pH 7.5",3 µg/mL
same,MBC,"[4]; ATCC12228, pH 6.5",> 4 µg/mL
same,MBC,"[4]; ATCC12228, pH 7.2",3 µg/mL
same,MBC,"[4]; ATCC12228, pH 7.5",2 µg/mL
same,MBC,"S. aureus ATCC 25923; ATCC25923, pH 6.5",> 4 µg/mL
same,MBC,"S. aureus ATCC 25923; ATCC25923, pH 7.2",3.25 µg/mL
same,MBC,"S. aureus ATCC 25923; ATCC25923, pH 7.5",2 µg/mL
same,MBC,"S. aureus ATCC 29213; ATCC29213, pH 6.5",> 4 µg/mL
same,MBC,"S. aureus ATCC 29213; ATCC29213, pH 7.2",> 4 µg/mL
same,MBC,"S. aureus ATCC 29213; ATCC29213, pH 7.5",2.25 µg/mL
same,MBC,"St. Pyogenes ATCC 21547; ATCC21547, pH 6.5",3 µg/mL
same,MBC,"St. Pyogenes ATCC 21547; ATCC21547, pH 7.2",0.6 µg/mL
same,MBC,"St. Pyogenes ATCC 21547; ATCC21547, pH 7.5",0.35 µg/mL
same,MBC,S. aureus ATCC 6538P; pH 6.5,> 4 µg/mL
same,MBC,S. aureus ATCC 6538P; pH 7.2,2.5 µg/mL
same,MBC,S. aureus ATCC 6538P; pH 7.5,1.75 µg/mL
same,MBC,"Ps. aeruginosa ATCC 9027; ATCC9027, pH 7.2",> 200 µg/mL
same,MBC,"Ps. aeruginosa ATCC 9027; ATCC9027, pH 7.5",200 µg/mL
same,MBC,"H. influenzae ATCC 9006; ATCC9006, pH 6.5",6 µg/mL
same,MBC,"H. influenzae ATCC 9006; ATCC9006, pH 7.2",3.5 µg/mL
same,MBC,"H. influenzae ATCC 9006; ATCC9006, pH 7.5",3.5 µg/mL
same,MBC,"[5]; ATCC27853, pH 7.2",100 µg/mL
same,MBC,"[5]; ATCC27853, pH 7.5",50 µg/mL
same,MBC,"[6]; ATCC49619, pH 6.5",3 µg/mL
same,MBC,"[6]; ATCC49619, pH 7.2",0.45 µg/mL
same,MBC,"[6]; ATCC49619, pH 7.5",0.3 µg/mL
same,intracellular distribution into specific tissues,[7]; after oral administration,extensive intracellular distribution
same,Half-life,[7]; in vivo,extremely elevated
same,antibacterial efficacy,gram-positive organisms,same efficacy
